The results in this text go back to article PMC5640644, “HDX reveals the conformational dynamics of DNA sequence specific VDR co-activator interactions” (Nature Communications, 2017).

Molecules are shown by their SMILES.

The test system of one experiment is TRPV6. Put plainly: TRPV6 gene activation assay (TRPV6 mRNA, QuantiGene 2.0) in differentiated C2BBe1 cells. It is filed as cell-based, human. The note with it: for Max. Stim., TRPV6 activation: C2BBe1 cells, fold change over DMSO normalized to 1,25D3 = 100%; for EC50: C2BBe1 cells differentiated 6 days, 24 h. How it is done:
C2BBe1 (a clone of CaCO2) cells (CRL-2101, American Type Culture Collection, Manassas, VA) were maintained in DMEM (ATCC 30-2002) supplemented with 10% FBS and insulin-transferrin-selenium-G supplement (Invitrogen, Carlsbad, CA). For TRPV6 expression analysis, cells were plated in 96-well tissue culture treated plates (40,000 per well) in differentiation medium (DMEM containing 5% charcoal-stripped FBS and insulin-transferrin-sodium selenite supplement (ITS)). Cells were allowed to differentiate for 6 days with medium replacement every other day before compound treatment. The medium was removed, and serial dilutions of 1,25D3 or VDRMs in concentrations ranging from 10 μM to 2 nM in differentiation medium were added. After 24 h, the medium was removed, and cell plates were sealed and frozen at −80 °C until assayed. QuantiGene 2.0 Assay Kit (Affymetrix QS0009) was used to quantitate TRPV6 and housekeeping gene GUSB mRNA levels. Following the kit instructions, lysis buffer was added to the frozen cells and incubated briefly at 55 °C […]. Following an overnight incubation the capture plates were washed and the probes amplified following kit instructions. The resulting luminescence signal was detected on an Envision plate reader (Perkin Elmer). TRPV6 signal was normalized using the GUSB signal and the resulting data was fit to a 4-parameter logistic to determine EC50 values.

A further experiment addresses T1, RXRα (Homo sapiens, UniProt P19793).
T1 construct: Flag; made in house; host or cells: baculovirus system
T1 sequence (P19793 1-462): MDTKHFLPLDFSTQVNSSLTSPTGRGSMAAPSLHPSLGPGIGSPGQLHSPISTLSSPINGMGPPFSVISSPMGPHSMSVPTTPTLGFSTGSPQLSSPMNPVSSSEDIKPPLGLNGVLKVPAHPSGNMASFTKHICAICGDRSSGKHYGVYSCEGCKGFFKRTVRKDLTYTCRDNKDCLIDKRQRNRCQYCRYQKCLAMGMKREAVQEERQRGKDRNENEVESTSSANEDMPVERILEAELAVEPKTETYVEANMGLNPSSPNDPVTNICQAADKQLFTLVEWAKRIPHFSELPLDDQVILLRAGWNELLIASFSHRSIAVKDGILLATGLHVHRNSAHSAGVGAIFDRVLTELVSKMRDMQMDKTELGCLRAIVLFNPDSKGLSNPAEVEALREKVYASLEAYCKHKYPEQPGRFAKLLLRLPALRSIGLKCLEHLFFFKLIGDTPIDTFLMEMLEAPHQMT
Put plainly: Differential HDX-MS of RXRα alone with and without ligand. The note with it: without VDR. It is filed as binding. How it is done: Full-length WT His-hVDR (Δ (151–190)) and WT Flag-h RXRα were expressed in a baculovirus system and purified by Ni-NTASEC or Flag-SEC, respectively. His-hSRC1 RID (627–786) variant 1 (NM_003743) was expressed in Escherichia coli (BL21 DE3) and purified using His-Trap (GE Healthcare). The final protein buffer was 50 mM Tris (pH 8.0), 150 mM NaCl, 10% glycerol and 2 mM DTT. The purity of each protein was > 95% and was verified using SDS-PAGE, western blot and MALDI MS.
HDX-MS analysis: 10 μM of the apo protein was mixed with 1:10 molar excess of ligand and incubated for 2 h at 4 °C for complex formation before subjecting them to HDX analysis. […] The intensity weighted mean m/z centroid value of each peptide envelope was calculated and subsequently converted into a percentage of deuterium incorporation. […] In the absence of a fully deuterated control, 100% deuterium incorporation was calculated theoretically, and corrections for back-exchange were made on the basis of an estimated 70% deuterium recovery and accounting for 79.9% final deuterium concentration in the sample (1:5 dilution in D2O HDX buffer). Statistical significance for the differential HDX data is determined by an unpaired t-test for each time point, a procedure that is integrated into the HDX Workbench software. […]

[1] abbreviates: Homo sapiens, average of replicate runs.

As a reminder, the EC50 is the midpoint of the concentration-response curve. A higher EC50 goes with weaker potency. Consider `CCc1cc(C(CC)(CC)c2ccc(OCC(O)C(C)(C)C)c(C)c2)sc1C(=O)N[C@@H](C)C(=O)O` (single isomer, unassigned) [Cmpd2, L-2-[(5-{1-Ethyl-1-[4-(2-hydroxy-3,3-dimethyl-butoxy)-3-methyl-phenyl]-propyl}-3-ethyl-thiophene-2-carbonyl)-amino]-propionic acid], for which the “Max. Stim., TRPV6 activation” value with TRPV6 is listed as 98.2%. In the experiment with TRPV6 (setting [1]), this compound yielded an EC50 of 0.395 µM.

Take `CCC(CC)(c1ccc(OCC(O)C(C)(C)C)c(C)c1)c1ccc(C(=O)N(C)CC(=O)O)c(C)c1` (stereo not shown) [Cmpd1, [(4-{1-ethyl-1-[4-(2-hydroxy-3,3-dimethyl-butoxy)-3-methyl-phenyl]-propyl}-2-methyl-benzoyl)-methyl-amino]-acetic acid]: the “Max. Stim., TRPV6 activation” value in the experiment with TRPV6 worked out at 80.3%. For the same compound, a half-maximal effect in the experiment on TRPV6 (setting [1]) (EC50) was put at 0.063 µM. Moreover, the “conformational changes of RXRα upon ligand binding (HDX)” value on RXRα is given as “no detectable conformational changes”.

As for `CCC(CC)(c1ccc(OCC(O)C(C)(C)C)c(C)c1)c1cc(C)c(C(=O)Nc2nnn[nH]2)s1` (stereo not shown) [Cmpd3, 3'-[4-(2-hydroxy-3,3-dimethylbutoxy)-3-methylphenyl]-3'-[5-(tetrazol-5-yl-aminocarbonyl)-4-methylthiophen-2-yl]pentane], in the experiment with TRPV6 (top concentration 10 μM), the EC50 is more than 10 µM. For the same compound, the “Max. Stim., TRPV6 activation” value in the experiment with TRPV6 is 17.4%.
